Test results reported in PubChem BioAssay (NCI).
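Values below derive from 48-hour exposures of cells grown in 96-well plates, with endpoints linearly interpolated between the two concentrations bracketing the appropriate inhibition level. GI50 marks 50% less growth. At the TGI there is no net growth.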

Assays:
Test in all cases: NCI tumour cell line growth inhibition, 48 h
MDA-MB-231 breast = tested on: MDA-MB-231 breast
SK-MEL-5 melanoma = tested on: SK-MEL-5 melanoma
HCC-2998 colon = tested on: HCC-2998 colon
DU-145 prostate = tested on: DU-145 prostate
SW-620 colon = tested on: SW-620 colon
HL-60(TB) leukemia = tested on: HL-60(TB) leukemia
TK-10 renal = tested on: TK-10 renal
NCI/ADR-RES ovarian = tested on: NCI/ADR-RES ovarian
SF-268 CNS = tested on: SF-268 CNS
SN12C renal = tested on: SN12C renal
OVCAR-5 ovarian = tested on: OVCAR-5 ovarian
HCT-116 colon = tested on: HCT-116 colon
UACC-257 melanoma = tested on: UACC-257 melanoma
SK-MEL-28 melanoma = tested on: SK-MEL-28 melanoma
K-562 leukemia = tested on: K-562 leukemia
MCF7 breast = tested on: MCF7 breast
ACHN renal = tested on: ACHN renal
M14 melanoma = tested on: M14 melanoma
NCI-H226 lung = tested on: NCI-H226 lung
PC-3 prostate = tested on: PC-3 prostate
NCI-H23 lung = tested on: NCI-H23 lung
A549 NSCLC = tested on: A549 NSCLC
RXF 393 renal = tested on: RXF 393 renal
SF-295 CNS = tested on: SF-295 CNS
MOLT-4 leukemia = tested on: MOLT-4 leukemia
OVCAR-8 ovarian = tested on: OVCAR-8 ovarian
RPMI-8226 leukemia = tested on: RPMI-8226 leukemia
KM12 colon = tested on: KM12 colon
SNB-75 CNS = tested on: SNB-75 CNS
A498 renal = tested on: A498 renal
BT-549 breast = tested on: BT-549 breast
HCT-15 colon = tested on: HCT-15 colon
OVCAR-4 ovarian = tested on: OVCAR-4 ovarian
SNB-19 CNS = tested on: SNB-19 CNS
MDA-MB-435 = tested on: MDA-MB-435
SK-MEL-2 melanoma = tested on: SK-MEL-2 melanoma
HOP-92 NSCLC = tested on: HOP-92 NSCLC
786-0 renal = tested on: 786-0 renal
HOP-62 NSCLC = tested on: HOP-62 NSCLC
CAKI-1 renal = tested on: CAKI-1 renal
SK-OV-3 ovarian = tested on: SK-OV-3 ovarian
UO-31 renal = tested on: UO-31 renal
HS 578T breast = tested on: HS 578T breast
CCRF-CEM leukemia = tested on: CCRF-CEM leukemia
UACC-62 melanoma = tested on: UACC-62 melanoma
HT29 colon = tested on: HT29 colon
U251 CNS = tested on: U251 CNS
NCI-H460 lung = tested on: NCI-H460 lung
IGROV1 ovarian = tested on: IGROV1 ovarian
OVCAR-3 ovarian = tested on: OVCAR-3 ovarian
T-47D breast = tested on: T-47D breast
COLO 205 colon = tested on: COLO 205 colon
LOX IMVI melanoma = tested on: LOX IMVI melanoma
NCI-H522 lung = tested on: NCI-H522 lung
SF-539 CNS = tested on: SF-539 CNS
SR leukemia = tested on: SR leukemia
MALME-3M melanoma = tested on: MALME-3M melanoma

Cn1cc(C2=C(c3c4n(c5ccccc35)CCN(C(N)=S)C4)C(=O)NC2=O)c2ccccc21 was tested, and the GI50 (MDA-MB-231 breast) was 6.95 µM, the TGI (MDA-MB-231 breast) was > 23.2 µM and the GI50 (SK-MEL-5 melanoma) was 2670 nM. The TGI (SK-MEL-5 melanoma) was > 16.7 µM, the GI50 (HCC-2998 colon) was 6.13 µM and the TGI (HCC-2998 colon) was 20.8 µM. The GI50 (DU-145 prostate) was 8.04 µM, the TGI (DU-145 prostate) was > 23.1 µM and the GI50 (SW-620 colon) was 3.45 µM. For the same compound, the TGI (SW-620 colon) was > 25 µM, the GI50 (HL-60(TB) leukemia) was 2330 nM and the TGI (HL-60(TB) leukemia) was 8.05 µM. For the same compound, the GI50 (TK-10 renal) was 8.64 µM, the TGI (TK-10 renal) was > 23.7 µM and the GI50 (NCI/ADR-RES ovarian) was 9.48 µM. The TGI (NCI/ADR-RES ovarian) was > 25 µM, the GI50 (SF-268 CNS) was 5.58 µM and the TGI (SF-268 CNS) was > 25 µM. The GI50 (SN12C renal) was 6.99 µM, the TGI (SN12C renal) was > 25 µM and the GI50 (OVCAR-5 ovarian) was 16 µM. For the same compound, the TGI (OVCAR-5 ovarian) was > 25 µM, the GI50 (HCT-116 colon) was 4.11 µM and the TGI (HCT-116 colon) was > 16.8 µM. The GI50 (UACC-257 melanoma) was 7.11 µM, the TGI (UACC-257 melanoma) was > 25 µM and the GI50 (SK-MEL-28 melanoma) was 5.34 µM. The TGI (SK-MEL-28 melanoma) was > 25 µM, the GI50 (K-562 leukemia) was 1590 nM and the TGI (K-562 leukemia) was > 17 µM. For the same compound, the GI50 (MCF7 breast) was 1240 nM, the TGI (MCF7 breast) was > 17.2 µM and the GI50 (ACHN renal) was 5.95 µM. For the same compound, the TGI (ACHN renal) was > 25 µM, the GI50 (M14 melanoma) was 4.71 µM and the TGI (M14 melanoma) was > 25 µM. For the same compound, the GI50 (NCI-H226 lung) was 5.84 µM, the TGI (NCI-H226 lung) was > 19 µM and the GI50 (PC-3 prostate) was 4.92 µM. For the same compound, the TGI (PC-3 prostate) was > 25 µM, the GI50 (NCI-H23 lung) was 7.34 µM and the TGI (NCI-H23 lung) was > 25 µM. For the same compound, the GI50 (A549 NSCLC) was 5.55 µM, the TGI (A549 NSCLC) was > 25 µM and the GI50 (RXF 393 renal) was 2340 nM. The TGI (RXF 393 renal) was 10.6 µM, the GI50 (SF-295 CNS) was 2640 nM and the TGI (SF-295 CNS) was 10.8 µM. For the same compound, the GI50 (MOLT-4 leukemia) was 5.12 µM, the TGI (MOLT-4 leukemia) was > 20.9 µM and the GI50 (OVCAR-8 ovarian) was 7.13 µM. The TGI (OVCAR-8 ovarian) was > 25 µM, the GI50 (RPMI-8226 leukemia) was 12.9 µM and the TGI (RPMI-8226 leukemia) was > 25 µM. It also gave a GI50 (KM12 colon) of 3.05 µM, a TGI (KM12 colon) of 9.69 µM and a GI50 (SNB-75 CNS) of 360 nM. The TGI (SNB-75 CNS) was 10.6 µM, the GI50 (A498 renal) was 1590 nM and the TGI (A498 renal) was 9.64 µM. The GI50 (BT-549 breast) was 6.83 µM, the TGI (BT-549 breast) was > 25 µM and the GI50 (HCT-15 colon) was 6.31 µM. The TGI (HCT-15 colon) was > 25 µM, the GI50 (OVCAR-4 ovarian) was 6.87 µM and the TGI (OVCAR-4 ovarian) was > 25 µM. The GI50 (SNB-19 CNS) was 12.8 µM, the TGI (SNB-19 CNS) was > 25 µM and the GI50 (MDA-MB-435) was 883 nM. It also gave a TGI (MDA-MB-435) of 5.98 µM, a GI50 (SK-MEL-2 melanoma) of 4.32 µM and a TGI (SK-MEL-2 melanoma) of 13 µM. For the same compound, the GI50 (HOP-92 NSCLC) was 8.82 µM, the TGI (HOP-92 NSCLC) was > 25 µM and the GI50 (786-0 renal) was 5.23 µM. The TGI (786-0 renal) was > 25 µM, the GI50 (HOP-62 NSCLC) was 6.81 µM and the TGI (HOP-62 NSCLC) was > 25 µM. The GI50 (CAKI-1 renal) was 4.85 µM, the TGI (CAKI-1 renal) was > 20.8 µM and the GI50 (SK-OV-3 ovarian) was 4.51 µM. For the same compound, the TGI (SK-OV-3 ovarian) was > 25 µM, the GI50 (UO-31 renal) was 4.37 µM and the TGI (UO-31 renal) was > 21.7 µM. For the same compound, the GI50 (HS 578T breast) was 880 nM, the TGI (HS 578T breast) was 11.1 µM and the GI50 (CCRF-CEM leukemia) was 4.61 µM. The TGI (CCRF-CEM leukemia) was > 25 µM, the GI50 (UACC-62 melanoma) was 4.27 µM and the TGI (UACC-62 melanoma) was > 25 µM. For the same compound, the GI50 (HT29 colon) was 2280 nM, the TGI (HT29 colon) was > 25 µM and the GI50 (U251 CNS) was 4.49 µM. The TGI (U251 CNS) was 11.2 µM, the GI50 (NCI-H460 lung) was 6.91 µM and the TGI (NCI-H460 lung) was > 22.8 µM. For the same compound, the GI50 (IGROV1 ovarian) was 7.82 µM, the TGI (IGROV1 ovarian) was > 19.1 µM and the GI50 (OVCAR-3 ovarian) was 1750 nM. The TGI (OVCAR-3 ovarian) was 7.36 µM, the GI50 (T-47D breast) was 10.4 µM and the TGI (T-47D breast) was > 25 µM. For the same compound, the GI50 (COLO 205 colon) was 5.97 µM, the TGI (COLO 205 colon) was > 21.6 µM and the GI50 (LOX IMVI melanoma) was 2500 nM. The TGI (LOX IMVI melanoma) was > 25 µM, the GI50 (NCI-H522 lung) was 1950 nM and the TGI (NCI-H522 lung) was > 15 µM. The GI50 (SF-539 CNS) was 1480 nM, the TGI (SF-539 CNS) was 7.86 µM and the GI50 (SR leukemia) was 1350 nM. For the same compound, the TGI (SR leukemia) was > 15.1 µM, the GI50 (MALME-3M melanoma) was > 11 µM and the TGI (MALME-3M melanoma) was > 25 µM.
